Data as given in patent US20090156477A1, “Compositions and Methods for Regulating Inflammatory Responses” (Massachusetts Institute of Technology, priority 2005, published 2009).

Tests used:
Format in all cases: cell-based, human
Caco-2 cells = assay: Transepithelial resistance (TER) of Caco-2 monolayers; details: for inhibited TER increases: 100 ng/ml ligand, three days (72 hours) after addition, percent reduction in TER compared to PBS treated cells; for time after treatment at which reductions in TER were evident: Caco-2 monolayers, TER followed over 48 hours; for reduced resistance on day 5: ligand added on day 0 and day 2, compared to untreated cells
Protocol: (§1) Caco-2 cells were grown close to confluence, and T84 cells were grown to confluence. The apical chambers of transwell plates with 6.5 mm diameter and 3 μm pore size filters were pretreated with 50 μl of 45 μg/ml collagen IV in 60% ethanol 24 hours prior to plating and incubated overnight at room temperature. After reaching confluence, cells were washed with 20 ml PBS and treated with 3.5 ml trypsin-EDTA per 175 cm^2 flask for 20-60 min at 37° C. until cells detached. Cells were resuspended in 16.5 ml media appropriate to the cell type. Each apical chamber was supplemented with 82 μl cell solution. The basolateral chamber was filled with 1 ml propagation media. Filters were fed with new media every two days over the course of experiments.
(§2) Caco-2 and T84 cells were allowed to grow on transwells to form monolayers. Monolayer formation was examined every other day by light microscopy as well as by transepithelial resistance (TER) measurements using an EVOM ohmmeter (World Precision Instruments, Sarasota, Fla.). After monolayer formation, cells were treated with 100 ng/ml FGF1, 100 ng/ml FGF2, 100 ng/ml FGF7 or an equivalent volume (10 μl) of PBS. TER measurements were made either after 72 hours or at each of the 30 minutes, 1 hour, 2 hours, 4 hours, 9 hours, 24 hours and 48 hours timepoints. To determine the effects of multiple additions of ligand, FGFs or PBS were added initially and again after 2 days, and TER measurements were made after 0, 2 and 5 days.
(§3) To probe the mechanism by which various FGFs induced cell mediated effects, various media treatments were employed. Ammonium tetrathiomolybdate (TM) was added 24 hours prior to the addition of ligands to yield a final concentration of 200 μM, sufficient to prevent the release of FGF1 [3]. Similarly, sodium chlorate, which reduces cell HSPGs and the sulfation of associated HSGAGs, was added 24 hours prior to the addition of ligands to yield a final concentration of 50 mM [33,34]. Antibodies and kinase inhibitors were added immediately prior to ligands. Antibodies to FGF1, FGFR1 and FGFR3 were added at a 1:100 dilution. Kinase inhibitors were added to yield final concentrations of 50 μM LY294002, 20 μM PD98059, 1 μM SB203580. All experiments were performed in triplicate.
Caco-2 cells were grown to just prior to confluency. The apical chambers of transwell plates with 6.5 mm diameter and 3 μm pore size filters were pretreated with 50 μl of 45 μg/ml mouse recombinant collagen IV (BD Biosciences, Bedford, Mass.) in 60% ethanol 24 hours prior to plating. Plates were incubated overnight at room temperature. Just prior to confluency, cells were washed with 20 ml phosphate buffered saline (PBS) and treated with 3.5 ml trypsin-EDTA per 175 cm^2 flask for 20-60 min at 37° C., until cells detached. Cells were resuspended in 16.5 ml media appropriate to the cell type. Each apical chamber was supplemented with 82 μl cell solution. The basolateral chamber was filled with 1 ml propagation media. Filters were fed with new media every two days over the course of experiments.
Caco-2 cells were allowed to grow on transwells to form monolayers. Monolayer formation was examined every other day by light microscopy as well as by TER measurements using an EVOM ohmmeter (World Precision Instruments, Sarasota, Fla.). After monolayer formation, cells were treated with 100 ng/ml recombinant human FGF1 (Amgen, Thousand Oaks, Calif.), 100 ng/ml recombinant human FGF2 [1], 100 ng/ml recombinant human FGF7 (Sigma, St. Louis, Mo.), or an equivalent volume (10 μl) of PBS. TER measurements were made after each of 30 minutes, 1 hour, 2 hours, 4 hours, 9 hours, 24 hours and 48 hours.
To probe the mechanism by which various FGFs induced cellular mediated effects, various media treatments were employed. TM was added 24 hours prior to the addition of ligands to yield a final concentration of 200 μM, sufficient to prevent the release of FGF1 [3]. […]

T84 cells = assay: Transepithelial resistance (TER) of T84 monolayers; details: for inhibited TER increases: 100 ng/ml ligand, three days (72 hours) after addition, percent reduction in TER compared to PBS treated cells; for reduced resistance on day 5: ligand added on day 0 and day 2, compared to untreated cells
Protocol: as §1, §2, §3

syndecan-1 = assay: Immunohistochemistry for syndecan-1 in Caco-2 cells; details: for syndecan-1 localization, one hour after treatment: 1 hour; for syndecan-1 distribution after 24 hours: compared to FGF1 treated cells
Protocol: Caco-2 cells were grown to just prior to confluency on collagen IV coated glass slides. Cells were treated with PBS, FGF1, FGF2 and FGF7, and were incubated at 37° C. in a 5% CO2 humidified incubator for 1 hour, 4 hours, 24 hours or 48 hours, as noted. Cells were washed with PBS, fixed with 3.7% formalin for 10 minutes and washed again with PBS. Cells were treated with 0.1% Triton x-100 for 5 minutes to extract lipids. Cells were washed with PBS and preincubated with PBS supplemented with 1% bovine serum albumin. Primary antibodies were added for 4 hours at room temperature, and cells were washed with PBS. Primary antibodies used were as follows: rabbit anti-human ZO-1 (1:160; Zymed Laboratories, San Francisco, Calif.); mouse anti-human syndecan-1 (1:300; Santa Cruz Biotechnology); goat anti-human Fz-1 (1:125; Santa Cruz Biotechnology); rabbit anti-human caveolin-1 (1:250; Santa Cruz Biotechnology); goat anti-human glypican-1 (1:100; Santa Cruz Biotechnology); mouse anti-human E-cadherin (1:250; Zymed Laboratories); rabbit anti-human β-catenin (1:125; Cell Signaling Technology, Beverly, Mass.); and rabbit anti-human phospho-β-catenin (Ser33/37/Thr41; 1:125; Cell Signaling Technology, Beverly, Mass.).
Cells were then treated with secondary antibodies, Texas Red-labeled phalloidin (Molecular Probes, Eugene, Oreg.) or FLAER-FL1 (1:400; Protox Biotech, Victoria, BC, Canada) as appropriate for 1 hour in the dark at room temperature. Secondary antibodies used were as follows: FITC-labeled chicken anti-rabbit (for ZO-1; 1:100; Molecular Probes, Eugene, Oreg.); Texas Red-labeled goat-anti mouse (for syndecan-1; 1:400; Molecular Probes); FITC-labeled donkey anti-mouse (for syndecan-1; 1:400; Molecular Probes, Eugene, Oreg.); FITC-labeled rabbit anti-mouse (for syndecan-1 and E-cadherin; 1:500; Molecular Probes, Eugene, Oreg.); Texas Red-labeled rabbit anti-goat (for Fz-1; 1:200; Jackson ImmunoResearch Laboratories, West Grove, Pa.); Texas Red-labeled goat anti-rabbit (for caveolin-1, β-catenin and phospho-β-catenin; 1:500; Molecular Probes); and Texas Red-labeled donkey anti-goat (for glypican-1; 1:80; Research Diagnostics, Flanders, N.J.).
Cells, except those stained with phalloidin, were washed with PBS and stained with diamidino-2-phenylindole (DAPI) for 5 minutes at room temperature (Molecular Probes). Controls of no antibody, primary antibody only, and secondary antibody only were performed. Cells were examined by confocal microscopy (ZO-1 and phalloidin only), or by fluorescence microscopy. A Nikon HB10101AF fluorescence microscope was used and images were captured at room temperature using a Hitachi HVC20 camera and Scion image acquisition software. Images were processed using Adobe Photoshop 7.0 and Adobe Illustrator 10.0.

Molecule | inhibited TER increases (Caco-2 cells; Caco-2 cells) | reduced TER at 48 hours (Caco-2 cells; Caco-2 cells, 100 ng/ml, 48 hours) | effect of added agent on FGF-induced reduction in TER (Caco-2 cells; Caco-2 cells, agent given before or with 100 ng/ml FGFs (TM 200 μM, sodium chlorate 50 mM, LY294002 50 μM, PMA 100 ng/ml, antibodies 1:100)) | reduction of TER in TM treated cells (Caco-2 cells; Caco-2 monolayers pretreated with 200 μM TM, all time points beginning at 4 hours) | reduction of TER with the addition of heparin (Caco-2 cells; Caco-2 monolayers pretreated with 50 mM sodium chlorate, heparin 500 ng/ml with ligands, vs PBS) | time after treatment at which reductions in TER were evident (Caco-2 cells; 100 ng/ml) | inhibited TER increases (T84 cells) | reduced TER at 48 hours (T84 cells; 100 ng/ml, 48 hours) | effect of added agent on FGF-induced reduction in TER (T84 cells; agent given before or with 100 ng/ml FGFs (TM 200 μM, sodium chlorate 50 mM, LY294002 50 μM, antibodies 1:100)) | syndecan-1 localization, one hour after treatment (syndecan-1) | reduced resistance on day 5 (Caco-2 cells; Caco-2 cells) | reduced resistance on day 5 (T84 cells) | syndecan-1 distribution after 24 hours (syndecan-1)
FGF1: Recombinant human FGF1 from Amgen | 35.1±12.3% | 45.1±5.2% | restored the ability of FGF2 and FGF7 to reduce TER | still elicited significant reductions in TER | reduced TER compared to PBS | 2 h | 30.1±1.5% | 22.7±3.2% | restored TER reductions | seen to a lesser amount | – | – | –
FGF2: Recombinant human FGF2, produced as described | 67.2±25.8% | – | – | – | – | 4 h | 43.4±16.6% | – | – | primarily localized around the nucleus | 43.6±11.1% | 41.7±8.1% | moderately enhanced cytoplasmic and membrane-associated distribution of syndecan-1
FGF7: Recombinant human FGF7 from Sigma (protein, UniProt P21781 32-194, looked up) Fibroblast growth factor 7: CNDMTPEQMATNVNCSSPERHTRSYDYMEGGDIRVRRLFCRTQWYLRIDKRGKVKGTQEMKNNYNIMEIRTVAVGIVAIKGVESEFYLAMNKEGKLYAKKECNEDCNFKELILENHYNTYASAKWTHNGGEMFVALNQKGIPVRGKKTKKEQKTAHFLPMAIT | 61.4±17.3% | – | – | – | – | 4 h | 54.6±7.6% | – | – | primarily localized around the nucleus | 44.4±8.7% | 37.3±3.5% | moderately enhanced cytoplasmic and membrane-associated distribution of syndecan-1
